Where a name gives a salt, the structure may show the parent alone. Read-outs that look alike come from different tables or passages of the source.
Columns and labels:
B. licheniformis = assay: Broth microdilution MIC/MBC, B. licheniformis; format: cell-based; settings: Bacillus licheniformis
[1] = system: vancomycin resistant enterococci (VRE) E. faecalis; assay: Broth microdilution MIC/MBC, VRE E. faecalis; format: cell-based
[2] = system: established methicillin-resistant S. epidermidis biofilm (ATCC 35984, NRS 101); assay: Microtiter dish biofilm eradication assay (crystal violet); format: cell-based, Staphylococcus epidermidis; settings: high concentrations (up to 8 X MIC), 24 h
Procedure: We used S. epidermidis ATCC 35984 (NRS 101), a high-slime producer isolated in septicemic patients, with colonized intravascular catheters from Tennessee, USA [10]. This strain is a multi-drug resistant strain, showing resistance to methicillin, erythromycin, kanamycin, gentamicin, clindamycin and trimethoprim. Briefly, an overnight culture of biofilm—producing MRSE was diluted 1:100 in a fresh medium containing 1% glucose in a 96-well tissue-culture treated plate. Bacteria were incubated at 37°C for 24 h to permit the formation of an adherent biofilm. The medium was removed and the biofilm was washed with PBS. Antibacterial drugs (vancomycin and linezolid) and rhodanine 2, at indicated concentration, were added and incubated again at 37°C for 24 h. Plates were washed again and biofilms were stained with 0.1% (wt/vol) crystal violet. Plates were washed with PBS, air-dried and biofilm mass was dissolved using 95% ethanol. The intensity of crystal violet was measured using a micro plate reader (SpectraMax i3x; Molecular Devices, Sunnyvale, CA, USA). Data are presented as the percent biofilm mass reduction in treated groups in relation to untreated wells.

[3] = system: vancomycin resistant enterococci (VRE); assay: Broth microdilution MIC50/MIC90, VRE panel; format: cell-based; settings: Enterococcus, VRE
MRSA USA300 = assay: MIC against MRSA USA300 with and without 4% human serum albumin; format: cell-based, Staphylococcus aureus; settings: Staphylococcus aureus, read-out: MIC against MRSA USA300
Procedure: The minimum inhibitory concentration (MIC) and the minimum bactericidal concentration (MBC) of rhodanine compounds 1 to 7 were determined against various Gram-positive and Gram-negative pathogens (S1 Table) following the guidelines of the Clinical and Laboratory Standards Institute (CLSI)[4]. The broth microdilution technique was used, followed by subculturing on agar plates that were rhodanine—free. […] The MICs reported represent the lowest concentration of each compound necessary to inhibit bacterial growth and the MBCs represent the lowest concentration required to reduce the initial bacterial inoculum by ≥ 99.9%.
The antimicrobial activity of rhodanine compounds in the presence of 4% human serum albumin (HSA) was tested against MRSA USA300. The MICs of rhodanine compounds and control antibiotics (vancomycin and daptomycin) were tested as described in the methods above using tryptic soy broth spiked with 4% HSA. We also synthesized and tested three more compounds, ethyl ester and amide of rhodanine 2 (Rh 8 and Rh 10, respectively) and ethyl ester of rhodanine 3 (Rh 9) to determine the influence of a carboxyl group modification toward anti-MRSA activity and human serum albumin (HSA) binding.

B. cereus = assay: Broth microdilution MIC/MBC, B. cereus; format: cell-based
Source text: The broth microdilution technique was used, followed by subculturing on agar plates that were rhodanine—free.

[4] = system: vancomycin resistant enterococci (VRE) E. faecium; assay: Broth microdilution MIC/MBC, VRE E. faecium; format: cell-based
[5] = system: Vancomycin Resistant Staphylococcus aureus (VRSA); assay: Broth microdilution MIC/MBC, VRSA; format: cell-based; settings: VRSA
Bacillus Strains = assay: Broth microdilution MIC50/MIC90 and MIC range, Bacillus strains panel; format: cell-based, Bacillus spp.; settings: 10 Bacillus strains
Source text: The broth microdilution technique was used, followed by subculturing on agar plates that were rhodanine—free. […] The MICs reported represent the lowest concentration of each compound necessary to inhibit bacterial growth and the MBCs represent the lowest concentration required to reduce the initial bacterial inoculum by ≥ 99.9%.

Mycobacterium smegmatis = assay: Broth microdilution MIC/MBC, Mycobacterium smegmatis; format: cell-based; settings: Mycolicibacterium smegmatis, ATCC14468
Clostridium difficile = assay: MIC against Clostridium difficile, anaerobic broth dilution; format: cell-based; settings: Clostridioides difficile
Procedure: Clinical isolates of C. difficile were cultured on anaerobic blood agar and incubated anaerobically using container gas pack system at 37° C for 48 hours. The colonies were then suspended in pre-reduced phosphate buffered saline (PBS) and adjusted to 0.5 McFarland standard then diluted 1:300 in pre-reduced Supplemented Brain Heart Infusion broth. The bacterial suspension was then transferred to each well of 96-well plates, the drugs were added to the first row of wells in the required concentrations and serially diluted along the plates. The plates were incubated again anaerobically using container gas pack system at 37° C for 48 hours. The (MIC) recorded was the lowest concentration of the drug showing no visible growth of the bacteria.

CN[C@H](CC(C)C)C(=O)N[C@H]1C(=O)N[C@@H](CC(N)=O)C(=O)N[C@H]2C(=O)N[C@H]3C(=O)N[C@H](C(=O)N[C@H](C(=O)O)c4cc(O)cc(O)c4-c4cc3ccc4O)[C@H](O)c3ccc(c(Cl)c3)Oc3cc2cc(c3O[C@@H]2O[C@H](CO)[C@@H](O)[C@H](O)[C@H]2O[C@H]2C[C@](C)(N)[C@H](O)[C@H](C)O2)Oc2ccc(cc2Cl)[C@H]1O [Vancomycin, vancomycin hydrochloride, reference compound]
16 µM: MBC (Mycobacterium smegmatis)
1 µM: MIC (Clostridium difficile; C. difficile Isolate-1 NR-13427)
0.25 µM: MIC (Clostridium difficile; C. difficile HM-746)
< 0.5 µM: MIC (B. licheniformis; NCIB9375) | MBC (B. licheniformis; NRS712) | MIC (B. licheniformis; NRS712) | MBC (B. cereus; Bacillus cereus, B. cereus BAG1X2-1 NR-28578, read-out: MBC) | MIC (B. cereus; Bacillus cereus, B. cereus BAG1X2-1 NR-28578, read-out: MIC) | MBC (B. cereus; Bacillus cereus, NRS201, B. cereus NRS 201 NR-2488, read-out: MBC) | MIC (B. cereus; Bacillus cereus, NRS201, B. cereus NRS 201 NR-2488, read-out: MIC) | MIC50 (Bacillus Strains) | MIC90 (Bacillus Strains)
> 64 µM: MIC [1] | MIC50 [3] | MIC90 [3] | MIC [4] | MBC [5] | MIC50 [5] | MIC90 [5] | MIC ([5]; VRSA 1) | MIC ([5]; VRSA 4) | MIC ([5]; VRSA 6) | MIC ([5]; VRSA 7) | MIC ([5]; VRSA 8) | MIC ([5]; VRSA 9) | MIC ([5]; VRSA 10) | MIC ([5]; VRSA 11a) | MIC ([5]; VRSA 11b) | MIC ([5]; VRSA 12) | MIC ([5]; VRSA 13)
> 16 µM: MIC ([5]; VRSA 2) | MIC ([5]; VRSA 3a) | MIC ([5]; VRSA 3b)
2 µM: MBC (B. licheniformis; NCIB9375) | MIC (Mycobacterium smegmatis)
> 64/— μM: MIC ([1]; E. faecalis ERV103 HM-934) | MIC ([1]; E. faecalis NR31972 Strain SF 28073) | MIC ([1]; E. faecalis S613 HM-334) | MIC ([1]; E. faecalis TX0104 HM-201) | MIC ([4]; E. faecium E417 HM-965) | MIC ([4]; E. faecium E1071 NR-28978) | MIC ([4]; E. faecium HM 968 Strain ERV102) | MIC ([4]; E. faecium NR31914 Strain E0120)
0.125 µM: MIC (Clostridium difficile; C. difficile HM-745)
0.5 µM: MIC (MRSA USA300) | MIC (Clostridium difficile; C. difficile HM-88) | MIC (Clostridium difficile; C. difficile Toxigenic Strain P8 NR-32888)
< 0.5/< 0.5 μM: MBC (B. cereus; B. cereus BAG1O-2 NR-28582) | MIC (B. cereus; B. cereus BAG1O-2 NR-28582) | MBC (B. cereus; B. cereus BAG1X1-1 NR-28575) | MIC (B. cereus; B. cereus BAG1X1-1 NR-28575) | MBC (B. cereus; B. cereus G9241 NR-9564) | MIC (B. cereus; B. cereus G9241 NR-9564) | MBC (B. cereus; B. cereus VD014 NR-22141) | MIC (B. cereus; B. cereus VD014 NR-22141) | MBC (B. cereus; B. cereus VD115 NR-22148) | MIC (B. cereus; B. cereus VD115 NR-22148) | MBC (B. cereus; B. cereus VD148 NR-22150) | MIC (B. cereus; B. cereus VD148 NR-22150)
64 µM: MIC ([5]; VRSA 5)
not significantly decreased: biofilm mass reduction [2]
